# Test results from publication PMC7848973, “In Vivo Efficacy and Metabolism of the Antimalarial Cycleanine and Improved In Vitro Antiplasmodial Activity of Semisynthetic Analogues” (Antimicrobial Agents and Chemotherapy, 2021).
# Where two headings read alike, the source gives them in different places. Marks after values point to notes of the source that are not given here.
# Key:
# [1] = test system: P. falciparum Dd2 chloroquine-resistant strain; test: In vitro antiplasmodial activity, SYBR green I fluorescence assay; type: cell-based, Plasmodium falciparum
# Experimental: Normalized fluorescence signals were measured against controls with 1% DMSO (100% growth) and after exposure to a supralethal concentration (10 μM) of chloroquine (0% growth). Determination of the 50% inhibitory concentration (IC50) was performed from a log concentration versus the mean normalized fluorescence signal curve using GraphPad Prism software (v5.0). Each biological replicate consisted of three technical repeats, with three independent biological replicates performed.
# [2] = test system: human ovarian epithelial (HOE) cells; conditions: cited from earlier work
# [3] = test system: P. falciparum chloroquine-sensitive clone 3D7; design: method as in PMID 26594753; conditions: read-out: IC50 against P. falciparum chloroquine-sensitive clone 3D7; cited from earlier work
# Plasmodium berghei [4] = test: Suppressive activity during early P. berghei infection of mice; type: in vivo; conditions: suppressive model; for Parasitemia after infection for 96 h / MST: mean ± SEM, n = 6; for MST: over 30 days
# Experimental: (§1) (i) Malaria parasite. Chloroquine-sensitive strains of P. berghei were sourced from the National Institute of Medical Research (NIMER), Yaba Lagos, Nigeria, and maintained by subpassage in mice.
# (§2) (ii) Parasite inoculation. Each mouse was inoculated intraperitoneally with about 1 × 10^7 P. berghei parasitized erythrocytes in 0.2 ml of infected blood (5 × 10^7 P. berghei erythrocytes/ml) according to published procedure ([39]).
# (§3) (iii) Experimental animals. Female and male Swiss albino mice (18 to 25 g) were obtained from the University of Uyo’s animal house. Before use, mice were kept in cages and acclimatized for 10 days. All mice were kept in cross-ventilated rooms at room temperature. The care and use of mice were performed in accordance with the National Institutes of Health Guide for the Care and Use of Laboratory Animals (1996). This investigation was approved by the University of Uyo’s Animal Ethics Committee.
# (§4) (v) Drug administration. Cycleanine, chloroquine, and pyrimethamine were prepared in water and administered orally with the aid of a stainless metallic feeding cannula.
# (vi) Suppressive activity of cycleanine. The schizontocidal activity of cycleanine and chloroquine against early P. berghei infection in mice was measured according to an established protocol ([25], [41], [42]). On the first day, 20 to 24 mice were infected with the parasite and randomly separated into four groups. The mice in groups 1 and 2 were given 25 and 50 mg/kg of cycleanine, respectively, those in group 3 were given 5 mg/kg of chloroquine (positive control), and those in group 4 were given distilled water (10 ml/kg, negative control) for four consecutive days. Thin films were made from the tail blood on the fifth day. Parasitized erythrocytes were counted in stained films (Giemsa stain) under a microscope. The average suppression of parasitemia (%) was calculated as follows: average % parasitemia positive control−average % parasitemia negative control/average % parasitemia negative control×100
# The MST (in days) of the mice in each group was determined over a period of 30 days.
# Plasmodium berghei [5] = test: Curative activity during established P. berghei infection of mice; type: in vivo; conditions: curative model, n = 6; for MST: over 30 days
# Experimental: as §1, §2, §3, §4
# (viii) Curative activity of cycleanine. The curative activity of cycleanine was assessed according to a method described previously ([42], [44]). P. berghei was injected intraperitoneally into another 24 mice on the first day. Three days later, the mice were also separated into four groups of six mice per group. Groups 1 and 2 were administered different doses of cycleanine, 25 and 50 mg/kg, respectively, group 3 was given 5 mg/kg chloroquine (positive control), and group 4 was given 10 ml/kg distilled water (negative control). Cycleanine and chloroquine were given once a day for 5 days. Mouse tail blood samples were collected on each day, and Giemsa-stained thin smears were prepared to determine the parasitemia level. The MST of the mice in each group was determined over a period of 30 days.
# [6] = test system: chloroquine-resistant P. falciparum strain W2; conditions: cited from earlier work
# [7] = design: method as in earlier work; conditions: mice; cited from earlier work
# Plasmodium berghei [8] = test: Prophylactic activity in P. berghei infection of mice; type: in vivo; conditions: prophylactic model; for Parasitemia level after infection for 72 h / MST: mean ± SEM, n = 6; for MST: over 30 days
# Experimental: as §1, §2, §3, §4
# (vii) Prophylactic activity of cycleanine. The prophylactic activity of cycleanine was evaluated using a previously described method ([42], [43]). The mice were randomly divided into four groups of six mice per group. Groups 1 and 2 were given 25 and 50 mg/kg of cycleanine, respectively, group 3 was given 1.2 mg/kg of pyrimethamine (positive control), and group 4 was given 10 ml/kg of distilled water (negative control). Administration of cycleanine or the drug continued for three consecutive days. On the fourth day, the mice were inoculated with P. berghei. The parasitemia level was evaluated by blood smears after 3 days. The survival times (days) of the mice were recorded over a period of 30 days, and MST were calculated.
# [9] = test system: P. falciparum chloroquine-sensitive strain D6; conditions: read-out: IC50 against P. falciparum strain D6; cited from earlier work
# [10] = test system: HCT-116 human colon carcinoma cells; conditions: cited from earlier work
# [11] = test system: human oral epidermoid carcinoma (KB) cells; design: method as in PMID 9917283; conditions: cited from earlier work
# [12] = Acute median lethal dose (LD50) of cycleanine in mice; type: in vivo; conditions: 24 h, intraperitoneal
# Experimental: as §3
# (iv) Determination of median lethal dose (LD50) of cycleanine. The median lethal dose (LD50) of cycleanine was determined using albino mice by the intraperitoneal (i.p.) route ([40]). Different doses of cycleanine (10 to 5,000 mg/kg) were intraperitoneally administered to groups of three mice each. The mice were monitored for manifestation of physical signs of toxicity, including decrease of motor activity, writhing, decrease of body/limb tone, weakness, and death. The number of deaths in each group within 24 h was recorded. The LD50 value was calculated as the geometrical means of the minimum dose producing 100% mortality and the maximum dose producing 0%.
# [13] = Plasmodium falciparum, DD2, chloroquine-resistant strain, mean ± SD, n = 3 independent biological repeats, read-out: IC50 against P. falciparum strain Dd2
# [14] = read-out: CC50 against HOE, human ovarian epithelial (HOE) cells
# [15] = 25 mg/kg oral, mean ± SEM, 25 mg/kg
# [16] = 50 mg/kg oral, mean ± SEM, 50 mg/kg
# [17] = chloroquine-resistant strain, ref 16, read-out: IC50 against P. falciparum strain W2
# [18] = chloroquine-resistant strain, ref 18, read-out: IC50 against P. falciparum strain W2
# [19] = Plasmodium falciparum, DD2, read-out: IC50 against P. falciparum strain Dd2
compound,measurement,setting,value
"C#CCNCc1c2c3c(c(OC)c1OC)Oc1ccc(cc1)C[C@H]1c4c(cc(OC)c(OC)c4Oc4ccc(cc4)C[C@@H]3N(C)CC2)CCN1C [5-[(Propargylamino)methyl]cycleanine (5), 5-[(Propargylamino)methyl]cycleanine]",IC50,[1]; [13],1.8 ± 0.2 µM
same,CC50,[2]; [14],32 ± 1.6 µM
cycleanine,IC50,"[1]; chloroquine-resistant strain, mean ± SD, n = 3 independent biological repeats, read-out: IC50 against P. falciparum strain Dd2",17.7 ± 2 µM
same,IC50,[3],0.08 µM
same,Suppression of parasitemia at 96 h,Plasmodium berghei [4]; 25 mg/kg per day oral,44.7%
same,Parasitemia after infection for 96 h,Plasmodium berghei [4]; 25 mg/kg per day oral,15.7 ± 1.8^b %
same,MST,Plasmodium berghei [4]; 25 mg/kg per day oral,24.7 ± 1.1^b days
same,Suppression of parasitemia at 96 h,Plasmodium berghei [4]; 50 mg/kg per day oral,86.5%
same,Parasitemia after infection for 96 h,Plasmodium berghei [4]; 50 mg/kg per day oral,3.8 ± 0.7^b %
same,MST,Plasmodium berghei [4]; 50 mg/kg per day oral,28.2 ± 0.9^b days
same,Parasitaemia Day 3,"Plasmodium berghei [5]; 25 mg/kg oral, mean ± SEM",12.7 ± 1.7%
same,Parasitaemia Day 5,Plasmodium berghei [5]; [15],13.3%
same,MST,Plasmodium berghei [5]; [15],21 days
same,Parasitaemia Day 3,"Plasmodium berghei [5]; 50 mg/kg oral, mean ± SEM",15.5 ± 0.9%
same,Parasitaemia Day 6,"Plasmodium berghei [5]; 50 mg/kg oral, mean ± SEM",6.0 ± 1.0%
same,Parasitaemia Day 7,"Plasmodium berghei [5]; 50 mg/kg oral, mean ± SEM",3.7 ± 1.1%
same,Parasitaemia Day 5,Plasmodium berghei [5]; [16],10.5%
same,MST,Plasmodium berghei [5]; [16],25 days
same,IC50,[6]; [17],0.25 µM
same,IC50,[6]; [18],4.5 µM
same,LD50,[7],1100 mg/kg
same,Suppression of parasitemia level after infection for 72 h,Plasmodium berghei [8]; 25 mg/kg per day oral,43.4%
same,Parasitemia level after infection for 72 h,Plasmodium berghei [8]; 25 mg/kg per day oral,11.5 ± 0.9^b %
same,MST,Plasmodium berghei [8]; 25 mg/kg per day oral,23.0 ± 0.6^b days
same,Suppression of parasitemia level after infection for 72 h,Plasmodium berghei [8]; 50 mg/kg per day oral,59.0%
same,Parasitemia level after infection for 72 h,Plasmodium berghei [8]; 50 mg/kg per day oral,8.3 ± 1.0^b %
same,MST,Plasmodium berghei [8]; 50 mg/kg per day oral,24.5 ± 0.6^b days
same,IC50,[9],0.07 µM
same,CC50,"[10]; read-out: CC50 against cancer cell line HCT, HCT-116 human colon carcinoma cells",531 µM
same,CC50 against cancer cell line KB,[11],> 33.7 µM
same,Acute median lethal dose (LD50),[12],4500 mg/kg
same,CC50,[2]; [14],35 ± 0.1 µM
"CCc1nc(N)nc(N)c1-c1ccc(Cl)cc1 [Pyrimethamine, reference compound]",Suppression of parasitemia level after infection for 72 h,Plasmodium berghei [8]; 1.2 mg/kg per day oral,76.2%
same,Parasitemia level after infection for 72 h,Plasmodium berghei [8]; 1.2 mg/kg per day oral,4.8 ± 1.1^b %
same,MST,Plasmodium berghei [8]; 1.2 mg/kg per day oral,29.8 ± 0.2^b days
"COc1cc2c3c(c1OC)Oc1ccc(cc1)C[C@H]1c4c(c(CN(C)C)c(OC)c(OC)c4Oc4ccc(cc4)C[C@@H]3N(C)CC2)CCN1C [5-[(Dimethylamino)methyl]cycleanine (4), 5-[(Dimethylamino)methyl]cycleanine]",IC50,[1]; [13],0.7 ± 0.1 µM
same,CC50,[2]; [14],10 ± 0.2 µM
"COc1cc2c3c4c1Oc1cc5c(cc1O4)C(Cc1ccc(O)c(c1)Oc1ccc(cc1)CC3NCC2)N(C)CC5 (centres unmarked) [2′-Norcocsuline (3), 2′-norcocsuline]",IC50,[1]; [13],7 ± 1.6 µM
same,IC50,[6]; read-out: IC50 against chloroquine-resistant clone W2,0.248 µM
same,IC50,[9],0.048 µM
same,CC50 against cancer cell line KB,[11],3.8^b μM
same,CC50,[2]; [14],8 ± 0.2 µM
"COc1cc2c3c(c1O)Oc1ccc(cc1)C[C@@H]1c4c(cc(OC)c(O)c4Oc4ccc(cc4)C[C@H]3N(C)CC2)CCN1C [Isochondodendrine (2), isochondodendrine]",IC50,[1]; [19],6.1 ± 1.3 µM
same,IC50,[6]; [18],0.2 µM
same,CC50,[10],29 µM
same,CC50,[2],10.5 ± 1.2 µM
"CCN(CC)CCCC(C)Nc1ccnc2cc(Cl)ccc12 (centres unmarked) [Chloroquine, reference compound]",IC50,[1]; [19],0.18 ± 0.03 µM
same,Suppression of parasitemia at 96 h,Plasmodium berghei [4]; 5 mg/kg per day oral,94.0%
same,Parasitemia after infection for 96 h,Plasmodium berghei [4]; 5 mg/kg per day oral,2.0 ± 0.8^b %
same,MST,Plasmodium berghei [4]; 5 mg/kg per day oral,30.0 ± 0.0^b days
same,Parasitaemia Day 3,"Plasmodium berghei [5]; 5 mg/kg oral, mean ± SEM",12.4 ± 0.5%
same,Parasitaemia Day 4,"Plasmodium berghei [5]; 5 mg/kg oral, mean ± SEM",2.1 ± 0.2%
same,Parasitaemia Day 6,Plasmodium berghei [5]; 5 mg/kg oral,0.0%
same,Parasitaemia Day 7,Plasmodium berghei [5]; 5 mg/kg oral,0.0%
same,Parasitaemia Day 5,"Plasmodium berghei [5]; 5 mg/kg oral, 5 mg/kg",0%
same,MST,"Plasmodium berghei [5]; 5 mg/kg oral, mean ± SEM, 5 mg/kg",30 days
same,IC50,[6]; [17],0.135 µM
same,IC50,[9],0.006 µM
same,CC50 against cancer cell line KB,[11],33.7^b μM
